Assays:
Format in all cases: functional
[1] = system: Parabacteroides distasonis; assay: Antibacterial activity against Bacteroides distasonis assessed as percent resistant isolates by agar dilution method
Bacteroides sp. [2] = assay: Antibacterial activity against Bacteroides spp. isolate by agar dilution method
Bacteroides caccae [3] = assay: Antibacterial activity against Bacteroides caccae isolate by agar dilution method
[4] = system: Bacteroides thetaiotaomicron; assay: Antibacterial activity against Bacteroides thetaiotaomicron isolate by agar dilution method
Bacteroides eggerthii [5] = assay: Antibacterial activity against Bacteroides eggerthii isolate by agar dilution method
Bacteroides ovatus [6] = assay: Antibacterial activity against Bacteroides ovatus isolate by agar dilution method
Phocaeicola vulgatus [7] = assay: Antibacterial activity against Bacteroides vulgatus isolate by agar dilution method
Bacteroides uniformis [8] = assay: Antibacterial activity against Bacteroides uniformis isolate by agar dilution method
Bacteroides stercoris [9] = assay: Antibacterial activity against Bacteroides stercoris isolate by agar dilution method
Bacteroides stercoris [10] = assay: Antibacterial activity against Bacteroides stercoris assessed as percent resistant isolates by agar dilution method; details: pooled result: one value given for 4 cell lines, strains, targets or settings
Phocaeicola vulgatus [11] = assay: Antibacterial activity against Bacteroides vulgatus assessed as percent resistant isolates by agar dilution method
Parabacteroides merdae [12] = assay: Antibacterial activity against Bacteroides merdae isolate by agar dilution method
Bacteroides uniformis [13] = assay: Antibacterial activity against Bacteroides uniformis assessed as percent resistant isolates by agar dilution method
[14] = system: Bacteroides thetaiotaomicron; assay: Antibacterial activity against Bacteroides thetaiotaomicron assessed as percent resistant isolates by agar dilution method
[15] = system: Parabacteroides distasonis; assay: Antibacterial activity against Bacteroides distasonis isolate by agar dilution method
Bacteroides ovatus [16] = assay: Antibacterial activity against Bacteroides ovatus assessed as percent resistant isolates by agar dilution method
Bacteroides fragilis [17] = assay: Antibacterial activity against Bacteroides fragilis assessed as percent resistant isolates by agar dilution method
Bacteroides caccae [18] = assay: Antibacterial activity against Bacteroides caccae assessed as percent resistant isolates by agar dilution method
Bacteroides fragilis [19] = assay: Antibacterial activity against Bacteroides fragilis isolate by agar dilution method
Bacteroides stercoris [20] = assay: Antibacterial activity against Bacteroides stercoris isolate by agar dilution method in presence of Tazobactam
Bacteroides eggerthii [21] = assay: Antibacterial activity against Bacteroides eggerthii isolate by agar dilution method in presence of Tazobactam
Parabacteroides merdae [22] = assay: Antibacterial activity against Bacteroides merdae assessed as percent resistant isolates by agar dilution method in presence of Tazobactam
Bacteroides ovatus [23] = assay: Antibacterial activity against Bacteroides ovatus isolate by agar dilution method in presence of Tazobactam
Parabacteroides merdae [24] = assay: Antibacterial activity against Bacteroides merdae isolate by agar dilution method in presence of Tazobactam
Bacteroides uniformis [25] = assay: Antibacterial activity against Bacteroides uniformis assessed as percent resistant isolates by agar dilution method in presence of Tazobactam
[26] = system: Parabacteroides distasonis; assay: Antibacterial activity against Bacteroides distasonis assessed as percent resistant isolates by agar dilution method in presence of Tazobactam
Bacteroides stercoris [27] = assay: Antibacterial activity against Bacteroides stercoris assessed as percent resistant isolates by agar dilution method in presence of Tazobactam
Bacteroides caccae [28] = assay: Antibacterial activity against Bacteroides caccae isolate by agar dilution method in presence of Tazobactam
[29] = system: Bacteroides thetaiotaomicron; assay: Antibacterial activity against Bacteroides thetaiotaomicron isolate by agar dilution method in presence of Tazobactam
Bacteroides uniformis [30] = assay: Antibacterial activity against Bacteroides uniformis isolate by agar dilution method in presence of Tazobactam
[31] = system: Bacteroides thetaiotaomicron; assay: Antibacterial activity against Bacteroides thetaiotaomicron assessed as percent resistant isolates by agar dilution me in presence of Tazobactam thod
Bacteroides sp. [32] = assay: Antibacterial activity against Bacteroides spp. isolate by agar dilution method in presence of Tazobactam
Bacteroides caccae [33] = assay: Antibacterial activity against Bacteroides caccae assessed as percent resistant isolates by agar dilution method in presence of Tazobactam
Bacteroides fragilis [34] = assay: Antibacterial activity against Bacteroides fragilis isolate by agar dilution method in presence of Tazobactam
[35] = system: Parabacteroides distasonis; assay: Antibacterial activity against Bacteroides distasonis isolate by agar dilution method in presence of Tazobactam
Bacteroides fragilis [36] = assay: Antibacterial activity against Bacteroides fragilis assessed as percent resistant isolates by agar dilution method in presence of Tazobactam
Bacteroides sp. [37] = assay: Antibacterial activity against Bacteroides spp. assessed as percent resistant isolates by agar dilution method in presence of Tazobactam
Phocaeicola vulgatus [38] = assay: Antibacterial activity against Bacteroides vulgatus assessed as percent resistant isolates by agar dilution method in presence of Tazobactam
Bacteroides eggerthii [39] = assay: Antibacterial activity against Bacteroides eggerthii assessed as percent resistant isolates by agar dilution method in presence of Tazobactam
Phocaeicola vulgatus [40] = assay: Antibacterial activity against Bacteroides vulgatus isolate by agar dilution method in presence of Tazobactam
Bacteroides ovatus [41] = assay: Antibacterial activity against Bacteroides ovatus assessed as percent resistant isolates by agar dilution method in presence of Tazobactam

CO[C@@]1(NC(=O)Cc2cccs2)C(=O)N2C(C(=O)O)=C(COC(N)=O)CS[C@@H]21 [CEFOXITIN]
32 µg/mL: MIC90 (Bacteroides caccae [3]) | MIC50 [4] | MIC90 (Bacteroides uniformis [8]) | MIC50 [15] | MIC90 (Bacteroides fragilis [19])
64 µg/mL: MIC90 (Bacteroides sp. [2]) | MIC90 [4] | MIC90 (Bacteroides eggerthii [5]) | MIC90 (Bacteroides ovatus [6]) | MIC90 (Phocaeicola vulgatus [7]) | MIC90 (Bacteroides stercoris [9]) | MIC90 (Parabacteroides merdae [12]) | MIC90 [15]
8.9%: Activity (Bacteroides caccae [18])
23.9%: Activity (Bacteroides stercoris [10])
16 µg/mL: MIC50 (Bacteroides sp. [2]) | MIC50 (Bacteroides caccae [3]) | MIC50 (Bacteroides eggerthii [5]) | MIC50 (Bacteroides ovatus [6]) | MIC50 (Phocaeicola vulgatus [7]) | MIC50 (Bacteroides uniformis [8]) | MIC50 (Bacteroides stercoris [9]) | MIC50 (Parabacteroides merdae [12])
9.4%: Activity (Bacteroides uniformis [13])
17%: Activity (Phocaeicola vulgatus [11])
25.6%: Activity [1]
23.6%: Activity [14]
12.2%: Activity (Bacteroides ovatus [16])
8 µg/mL: MIC50 (Bacteroides fragilis [19])
6.4%: Activity (Bacteroides fragilis [17])

O=C(N[C@H](CO)[C@H](O)c1ccc([N+](=O)[O-])cc1)C(Cl)Cl [CHLORAMPHENICOL]
8 µg/mL: MIC90 (Bacteroides sp. [2]) | MIC90 (Bacteroides caccae [3]) | MIC90 [4] | MIC90 (Bacteroides eggerthii [5]) | MIC90 (Bacteroides ovatus [6]) | MIC90 (Phocaeicola vulgatus [7]) | MIC90 (Bacteroides uniformis [8]) | MIC90 (Bacteroides stercoris [9]) | MIC90 (Parabacteroides merdae [12]) | MIC50 [15] | MIC90 [15] | MIC90 (Bacteroides fragilis [19])
4 µg/mL: MIC50 (Bacteroides sp. [2]) | MIC50 (Bacteroides caccae [3]) | MIC50 [4] | MIC50 (Bacteroides eggerthii [5]) | MIC50 (Bacteroides ovatus [6]) | MIC50 (Phocaeicola vulgatus [7]) | MIC50 (Bacteroides uniformis [8]) | MIC50 (Bacteroides stercoris [9]) | MIC50 (Parabacteroides merdae [12]) | MIC50 (Bacteroides fragilis [19])
0%: Activity [1] | Activity (Bacteroides stercoris [10]) | Activity (Phocaeicola vulgatus [11]) | Activity (Bacteroides uniformis [13]) | Activity [14] | Activity (Bacteroides ovatus [16]) | Activity (Bacteroides fragilis [17]) | Activity (Bacteroides caccae [18])

CCC[C@@H]1C[C@@H](C(=O)N[C@@H]([C@H]2O[C@H](SC)[C@H](O)[C@@H](O)[C@H]2O)[C@H](C)Cl)N(C)C1 [CLINDAMYCIN]
48.8%: Activity (Bacteroides ovatus [16])
4 µg/mL: MIC50 (Bacteroides sp. [2]) | MIC50 (Bacteroides caccae [3]) | MIC50 [4] | MIC50 (Bacteroides eggerthii [5]) | MIC50 (Bacteroides ovatus [6]) | MIC50 (Phocaeicola vulgatus [7]) | MIC50 (Bacteroides stercoris [9]) | MIC50 (Parabacteroides merdae [12]) | MIC50 [15]
41.9%: Activity [1]
46.7%: Activity (Bacteroides caccae [18])
> 256 µg/mL: MIC90 (Bacteroides sp. [2]) | MIC90 (Bacteroides caccae [3]) | MIC90 [4] | MIC90 (Bacteroides eggerthii [5]) | MIC90 (Bacteroides ovatus [6]) | MIC90 (Phocaeicola vulgatus [7]) | MIC90 (Bacteroides uniformis [8]) | MIC90 (Bacteroides stercoris [9]) | MIC90 (Parabacteroides merdae [12]) | MIC90 [15] | MIC90 (Bacteroides fragilis [19])
2 µg/mL: MIC50 (Bacteroides uniformis [8]) | MIC50 (Bacteroides fragilis [19])
33.3%: Activity (Bacteroides fragilis [17])
45.7%: Activity (Bacteroides stercoris [10])
44.7%: Activity (Phocaeicola vulgatus [11])
40.6%: Activity (Bacteroides uniformis [13])
47.3%: Activity [14]

C[C@@H](O)[C@H]1C(=O)N2C(C(=O)O)=C(SCCNC=N)C[C@H]12 [IMIPENEM ANHYDROUS]
0.5%: Activity [14]
0.5 µg/mL: MIC50 (Bacteroides caccae [3]) | MIC50 [4] | MIC50 (Phocaeicola vulgatus [7])
1 µg/mL: MIC50 [15] | MIC90 [15] | MIC90 (Bacteroides fragilis [19])
0.6%: Activity (Bacteroides fragilis [17])
0.25 µg/mL: MIC50 (Bacteroides sp. [2]) | MIC50 (Bacteroides eggerthii [5]) | MIC50 (Bacteroides ovatus [6]) | MIC50 (Bacteroides uniformis [8]) | MIC50 (Bacteroides stercoris [9]) | MIC50 (Parabacteroides merdae [12]) | MIC50 (Bacteroides fragilis [19])
2 µg/mL: MIC90 (Bacteroides sp. [2]) | MIC90 (Bacteroides caccae [3]) | MIC90 [4] | MIC90 (Bacteroides eggerthii [5]) | MIC90 (Bacteroides ovatus [6]) | MIC90 (Phocaeicola vulgatus [7]) | MIC90 (Bacteroides uniformis [8]) | MIC90 (Bacteroides stercoris [9]) | MIC90 (Parabacteroides merdae [12])
0%: Activity [1] | Activity (Bacteroides stercoris [10]) | Activity (Phocaeicola vulgatus [11]) | Activity (Bacteroides uniformis [13]) | Activity (Bacteroides ovatus [16]) | Activity (Bacteroides caccae [18])

Cc1ncc([N+](=O)[O-])n1CCO [METRONIDAZOLE]
2 µg/mL: MIC90 (Bacteroides sp. [2]) | MIC90 (Bacteroides caccae [3]) | MIC90 [4] | MIC90 (Bacteroides eggerthii [5]) | MIC90 (Bacteroides ovatus [6]) | MIC90 (Phocaeicola vulgatus [7]) | MIC90 (Bacteroides uniformis [8]) | MIC90 (Bacteroides stercoris [9]) | MIC90 (Parabacteroides merdae [12]) | MIC90 [15] | MIC90 (Bacteroides fragilis [19])
1 µg/mL: MIC50 (Bacteroides caccae [3]) | MIC50 [4] | MIC50 (Bacteroides ovatus [6]) | MIC50 (Phocaeicola vulgatus [7]) | MIC50 (Bacteroides uniformis [8]) | MIC50 [15] | MIC50 (Bacteroides fragilis [19])
0.5 µg/mL: MIC50 (Bacteroides sp. [2]) | MIC50 (Bacteroides eggerthii [5]) | MIC50 (Bacteroides stercoris [9]) | MIC50 (Parabacteroides merdae [12])
0%: Activity [1] | Activity (Bacteroides stercoris [10]) | Activity (Phocaeicola vulgatus [11]) | Activity (Bacteroides uniformis [13]) | Activity [14] | Activity (Bacteroides ovatus [16]) | Activity (Bacteroides fragilis [17]) | Activity (Bacteroides caccae [18])

CCN1CCN(C(=O)N[C@@H](C(=O)N[C@@H]2C(=O)N3[C@@H]2SC(C)(C)[C@@H]3C(=O)O)c2ccccc2)C(=O)C1=O [PIPERACILLIN]
1 µg/mL: MIC50 (Bacteroides fragilis [34])
4 µg/mL: MIC50 (Bacteroides uniformis [30])
3.3%: Activity [31]
16 µg/mL: MIC90 (Bacteroides ovatus [23]) | MIC50 [29] | MIC90 (Bacteroides uniformis [30]) | MIC50 [35] | MIC90 [35]
0.5%: Activity (Bacteroides fragilis [36])
32 µg/mL: MIC90 (Bacteroides stercoris [20]) | MIC90 (Bacteroides eggerthii [21]) | MIC90 (Parabacteroides merdae [24]) | MIC90 (Bacteroides caccae [28]) | MIC90 [29] | MIC90 (Bacteroides sp. [32]) | MIC90 (Phocaeicola vulgatus [40])
2.2%: Activity (Bacteroides caccae [33])
8 µg/mL: MIC50 (Bacteroides stercoris [20]) | MIC50 (Bacteroides eggerthii [21]) | MIC50 (Bacteroides ovatus [23]) | MIC50 (Parabacteroides merdae [24]) | MIC50 (Bacteroides caccae [28]) | MIC50 (Bacteroides sp. [32]) | MIC90 (Bacteroides fragilis [34]) | MIC50 (Phocaeicola vulgatus [40])
0%: Activity (Parabacteroides merdae [22]) | Activity (Bacteroides uniformis [25]) | Activity [26] | Activity (Bacteroides stercoris [27]) | Activity (Bacteroides sp. [37]) | Activity (Phocaeicola vulgatus [38]) | Activity (Bacteroides eggerthii [39]) | Activity (Bacteroides ovatus [41])

CN(C)c1cc(NC(=O)CNC(C)(C)C)c(O)c2c1C[C@H]1C[C@H]3[C@H](N(C)C)C(O)=C(C(N)=O)C(=O)[C@@]3(O)C(O)=C1C2=O [TIGECYCLINE]
9.1%: Activity (Bacteroides uniformis [13])
8.3%: Activity [1]
16.1%: Activity (Bacteroides caccae [18])
2 µg/mL: MIC50 (Bacteroides ovatus [6]) | MIC50 [15]
8 µg/mL: MIC90 (Bacteroides sp. [2]) | MIC90 [4] | MIC90 (Bacteroides eggerthii [5]) | MIC90 (Bacteroides ovatus [6]) | MIC90 (Phocaeicola vulgatus [7]) | MIC90 (Bacteroides uniformis [8]) | MIC90 (Bacteroides stercoris [9]) | MIC90 (Parabacteroides merdae [12]) | MIC90 [15] | MIC90 (Bacteroides fragilis [19])
16 µg/mL: MIC90 (Bacteroides caccae [3])
1 µg/mL: MIC50 (Bacteroides sp. [2]) | MIC50 (Bacteroides caccae [3]) | MIC50 [4] | MIC50 (Bacteroides eggerthii [5]) | MIC50 (Bacteroides uniformis [8]) | MIC50 (Bacteroides stercoris [9]) | MIC50 (Parabacteroides merdae [12]) | MIC50 (Bacteroides fragilis [19])
0.5 µg/mL: MIC50 (Phocaeicola vulgatus [7])
7.5%: Activity [14]
6.1%: Activity (Phocaeicola vulgatus [11])
10.5%: Activity (Bacteroides stercoris [10])
7.2%: Activity (Bacteroides ovatus [16])
6.5%: Activity (Bacteroides fragilis [17])
